Data on 18 compounds can be found in patent US20110306638A1, “BENZISOXAZOLE PIPERIDINYL DERIVATIVES, PHARMACEUTICAL COMPOSITIONS COMPRISING THE DERIVATIVES AND THEIR USE” (NHWA PHARMA. CORPORATION, priority 2008, published 2011).

Assay [1] deals with Kunming mice. The assay can be described thus: Acetic acid-induced abdominal writhing test in mice. In kind it is in vivo. Here is the method: Kunming mice, SPF KM mice purchased from […] SLAC LABORATORY ANIMAL CO. LTD and kept in normal environment.
The compounds were dissolved in water for injection at a concentration of 4 mg/ml, 2 mg/ml and 1 mg/ml and were given intragastrically to animals.
(§1) Three different doses (10, 20, and 40 mg/kg) were administered to the test groups.
Aspirin was used as a positive control and acetic acid writhing test was used.
30 mice (half male and half female) weighing 18-23 g were divided into five groups, including negative control group, positive control group, low dose group, medium dose group and high dose group:
Mice in test group received test drug (10 mg/kg, 20 mg/kg, 40 mg/kg) via intragastric administration. Negative control group received physiological saline (20 ml/kg) via oral administration. Positive control group received aspirin (200 mg/kg) via oral administration. One hour later, each group received 0.7% acetic acid 10 ml/kg intraperitoneally. Five minutes later, the number of writhes was counted within the subsequent 15 min period; inhibition percentage of writhing response in each test group was calculated by the following equation: […]

In another assay the target is T1, 5-HT2A receptor (Homo sapiens, UniProt P28223).
T1 construct: expressed in transfected cells; host or cells: HEK293
The assay can be described thus: In-vitro competitive binding to 5-HT2A receptor, [3H]-Ketanserin, transformed HEK293 cells. As to conditions: for inhibition at 10 µM: read-out: 5-HT2A [3H]-Ketanserin inhibition percentage; for IC50 / Ki: affinity to 5-HT2A receptor, concentration gradient test; for inhibitory activity on 5-HT2A (in words): compared with Aripiprazole. On the procedure: All test samples were dissolved in DMSO at a concentration of 0.01 mol/L, and then diluted with deionized water to 100 umol/L.
HEK293 cells were transformed with plasmid carriers containing the gene coding for 5-HT2A receptor protein by using calcium phosphate transformation. Stable cell strains which could stably express 5-HT2A receptor protein were obtained from the transformed cells by cultivating in a culture media containing G418, selecting monoclones of the cell and performing radioactive ligand binding assay.
Beckman LS 6500 Scintillation Counter.
HEK-293 cells were infected with recombined viruses containing various genes described above. […] Cells were centrifuged at 1000 rpm for 5 min Culture media was discarded, and cell bodies were collected and stored at −20° C. in a freezer. The cell bodies were resuspended with Tris-HCl reaction buffer during assay.
After incubation at 37° C. for 15 min, the reaction mixture was immediately transferred into ice bath to terminate the reaction; the reaction mixture was quickly filtered through GF/C glass cellulose filter on a Millipore cell sample collector, and was then washed with eluting solution (50 mM Tris-HCl, PH 7.7, 3 ml×3) and dried in a microwave for 8-9 min. The filter was transferred into a 0.5 ml centrifuge tube, and 500 μl lipid soluble scintillation fluid was added. The centrifuge tube was allowed to stand in darkness for more than 30 min. Radioactivity was determined by counting Inhibition percentage of each compound on isotope ligand binding was calculated according to the following equation:
inhibition percentage(I %)=cpm of overall binding tube−cpm of compound/cpm of overall binding tube−cpm of nonspecific binding tube×100%.
Each compound was tested in two duplicate test tubes and two separate tests were performed.

The test system of a further assay is mice. The assay can be described thus: Sedative effects in mice (spontaneous activities). Set-up: unit not given here. The class given is in vivo. As to conditions: single dose 20 mg/kg. Here is the method:
Spontaneous activities of the mice were recorded by alternating current tube, Sedative effects were tested after single dose (20 mg/kg).

Assay [2] concerns the target T2, 5-HT reuptake by brain synapses (Rattus norvegicus, UniProt P31652).
T2 construct: forehead cortex was obtained for [^3H]5-HT, [^3H]NA reuptake test; from tissue; host or cells: rat (SD) forebrain cortex synaptosomes
The assay can be described thus: [3H]5-HT reuptake test in rat brain synapses. The note with it: for inhibitory activity on 5-HT reuptake (in words): at 10 μmol/L, compared with Dutoxetine; for inhibition at 10 µM: final concentration 10 umol/L, rat brain synapses, read-out: 5-HTU [3H] 5-HT reuptake inhibition percentage Mean. The class given is biochemical. On the procedure: The method was as follows:
Male SD rats were killed by cervical dislocation, heads were immediately cut and brains were obtained and put on ice, related brain tissues were dissected (forehead cortex was obtained for [^3H]5-HT, [^3H]NA reuptake test, corpus striatum was obtained for [^3H]DA reuptake).
After the sample was weighed, 10 folds (V/W) ice cold 0.32 mol/L sucrose solution was added.
According to [a. […] 5-HT was added and after incubation in water bath at 37° C. for 10 min, the reaction mixture was immediately taken out of the water bath and 2 ml ice cold 150 mmol/L Tris-HCl was added to terminate the reaction. The sample was collected on a round glass fiber filter by vacuum filtration and washed three times with 3 ml ice cold Tris-HCl buffer. The filter membrane was removed, dried in a far-infrared oven for 15 min, then transferred into a EP tube, in which 1.5 ml scintillation fluid was added, left overnight and detected by a scintillation counter. The test sample was not added into solvent controlled overall binding tube or non-specific binding tube. 50 μl solvent was added into the overall binding tube, and in [^3H] 5-HT reuptake test, 600 μmol/L cocaine was added into the non-specific binding tube.

Assay [3] has as its system Kunming mice. Description: Hot-plate test in mice. The class given is in vivo. The note with it: 1 h post dose. Here is the method: Kunming mice, SPF KM mice were purchased from […] SLAC LABORATORY ANIMAL CO. LTD and kept in normal environment.
The compounds were dissolved in water for injection at a concentration of 4 mg/ml, 2 mg/ml and 1 mg/ml and were given subcutaneously to animals.
as §1
Morphine was used as a positive control and hot plate test was used.
30-40 mice (half male and half female) weighed from 18 to 23 gram were used. First, each mouse was placed on a hot plat at 55° C. to determine basic pain threshold for 2-3 times. Those animals with basic pain threshold of 5-30 s were qualified, unqualified mice were not used. 30 qualified mice were divided into five groups, including negative control group, positive control group, low-dose group, medium-dose group and high-dose group:
Mice in test groups received test sample solution (10 mg/kg, 20 mg/kg, 40 mg/kg) via subcutaneous injection in the neck. Positive control group received subcutaneous injection of morphine (2 mg/kg). One hour later, pain threshold values were determined for mice in each group as post-drug pain threshold. Percentage increase in pain threshold was calculated according to the following equation: […]
Background: Hot-plate and tail-flick tests time the reaction to a heat stimulus.

The mark [4] stands for this setting: 10 mg/kg intragastric administration.
Where [5] appears, read: 20 mg/kg intragastric administration.
[6] abbreviates: 40 mg/kg intragastric administration.

Like-named read-outs stand apart in the source and are kept apart here. Marks after values point to notes of the source that are not given here.

T2 sequence (P31652 whole entry): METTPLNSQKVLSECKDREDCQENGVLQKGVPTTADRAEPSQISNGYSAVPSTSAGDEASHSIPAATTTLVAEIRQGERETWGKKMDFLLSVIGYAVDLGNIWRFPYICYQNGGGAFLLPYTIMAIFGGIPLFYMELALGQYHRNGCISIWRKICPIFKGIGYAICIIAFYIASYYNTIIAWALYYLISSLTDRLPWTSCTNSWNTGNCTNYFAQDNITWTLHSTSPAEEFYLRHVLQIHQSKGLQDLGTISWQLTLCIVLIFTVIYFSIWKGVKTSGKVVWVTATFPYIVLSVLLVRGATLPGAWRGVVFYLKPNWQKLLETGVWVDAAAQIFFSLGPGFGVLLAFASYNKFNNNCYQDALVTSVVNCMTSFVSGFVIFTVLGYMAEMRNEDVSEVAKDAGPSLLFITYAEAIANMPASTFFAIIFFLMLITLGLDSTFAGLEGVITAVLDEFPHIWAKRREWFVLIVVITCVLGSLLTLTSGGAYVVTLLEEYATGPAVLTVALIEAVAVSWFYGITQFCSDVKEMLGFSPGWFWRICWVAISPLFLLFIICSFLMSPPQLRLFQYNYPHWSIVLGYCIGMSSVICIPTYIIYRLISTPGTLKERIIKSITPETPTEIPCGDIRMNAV
T1 sequence (P28223 whole entry): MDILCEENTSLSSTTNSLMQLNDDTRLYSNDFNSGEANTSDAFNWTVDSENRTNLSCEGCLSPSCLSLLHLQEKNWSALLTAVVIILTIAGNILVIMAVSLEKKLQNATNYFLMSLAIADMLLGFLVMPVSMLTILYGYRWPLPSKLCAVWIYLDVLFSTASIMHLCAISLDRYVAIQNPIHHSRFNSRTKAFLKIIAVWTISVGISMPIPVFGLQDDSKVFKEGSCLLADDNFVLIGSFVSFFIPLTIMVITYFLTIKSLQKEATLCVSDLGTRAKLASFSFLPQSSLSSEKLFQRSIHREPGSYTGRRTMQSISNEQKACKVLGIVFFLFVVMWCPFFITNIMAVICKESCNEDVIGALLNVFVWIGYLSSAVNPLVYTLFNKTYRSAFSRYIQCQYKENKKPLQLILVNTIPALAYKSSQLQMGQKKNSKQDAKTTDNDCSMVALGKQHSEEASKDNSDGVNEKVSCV

Turning to `CC(=O)Oc1ccccc1C(=O)O` [Aspirin, reference compound], in the assay on Kunming mice [1] (positive control, 200 mg/kg oral, 1 h before acetic acid), the “Inhibition percentage of writhing response” value (shortened to “Inhibition percentage”) is on record as 95.05** %.

With `Fc1ccc2c(C3CCN(CCn4ccc5ccccc54)CC3)noc2c1` [II-1, 3-(1-(2-(1H-indol-1-yl)ethyl)piperidin-4-yl)-6-fluorobenzo[d]isoxazole], the inhibition at 10 µM at 5-HT2A receptor amounted to 99.5%. Moreover, in the assay with mice, the Sedative effect is 43*.

Consider `Fc1ccc2c(C3CCN(CCCn4ccc5ccccc54)CC3)noc2c1` [II-2, 3-(1-(3-(1H-indol-1-yl)propyl)piperidin-4-yl)-6-fluorobenzo[d]isoxazole], for which the Sedative effect in the assay with mice is given as 44*.

In turn, `Fc1ccc2c(C3CCN(CCCCn4ccc5ccccc54)CC3)noc2c1` [II-3, 3-(1-(4-(1H-indol-1-yl)butyl)piperidin-4-yl)-6-fluorobenzo[d]isoxazole] displayed an IC50 at 5-HT2A receptor of 1.66 nM. In addition, the Ki at 5-HT2A receptor is 1.12 nM. For the same compound, at 5-HT2A receptor, the “inhibitory activity on 5-HT2A (in words)” value was “potent inhibitory activities”. Besides, the inhibition at 10 µM at 5-HT2A receptor (final concentration 10 umol/L) came out at 100%; in assay [2], 95.9%. For the same compound, the “Inhibition percentage” value is recorded as 98.65** % in the assay on Kunming mice [1] (setting [4]), 100.0** % with Kunming mice [1] (setting [5]) and 100.0** % in the assay with Kunming mice [1] (setting [6]). Further, in assay [2], the “inhibitory activity on 5-HT reuptake (in words)” value is “potent inhibitory activities”. For the same compound, the figures for the “Percentage increase in pain threshold” value in the assay on Kunming mice [3] (10 mg/kg S.c.), in the assay with Kunming mice [3] (20 mg/kg S.c.) and with Kunming mice [3] (40 mg/kg S.c.) were 95.48* %, 194** % and 133%, respectively. The compound further came in with a Sedative effect in the assay on mice of 35.

On to `Fc1ccc2c(C3CCN(CCCCCn4ccc5ccccc54)CC3)noc2c1` [II-4, 3-(1-(5-(1H-indol-1-yl)pentyl)piperidin-4-yl)-6-fluorobenzo[d]isoxazole], for which the inhibition at 10 µM at 5-HT2A receptor is 99.9%. Further, the Sedative effect in the assay on mice is given as 91**.

On to `Fc1ccc2c(C3CCN(CCCn4ccc5ccc(F)cc54)CC3)noc2c1` [II-5, 6-fluoro-3-(1-(3-(6-fluoro-1H-indol-1-yl)propyl)piperidin-4-yl)benzo[d]isoxazole], for which, in the assay with mice, the Sedative effect is 65*.

For the compound `N#Cc1ccc2ccn(CCCN3CCC(c4noc5cc(F)ccc45)CC3)c2c1` [II-6, 1-(3-(4-(6-fluorobenzo[d]isoxazol-3-yl)piperidin-1-yl)propyl)-1H-indole-6-carbonitrile], the half-maximal inhibitory concentration (IC50) at 5-HT2A receptor was 4.78 nM. On 5-HT2A receptor, this compound had a Ki of 3.22 nM. Moreover, at 5-HT2A receptor, the “inhibitory activity on 5-HT2A (in words)” value is on record as “potent inhibitory activities”. For the same compound, the values for the inhibition at 10 µM (at 5-HT2A receptor (final concentration 10 umol/L); in assay [2]) were 100% and 96.7%, respectively. The “Inhibition percentage” value in the assay with Kunming mice [1] (setting [4]) is recorded as 74.09* %; in the assay on Kunming mice [1] (setting [5]), 69.55%; in the assay with Kunming mice [1] (setting [6]) it was 100.0** %. For the same compound, the “inhibitory activity on 5-HT reuptake (in words)” value in assay [2] is recorded as “potent inhibitory activities”. In addition, the “Percentage increase in pain threshold” value in the assay with Kunming mice [3] (10 mg/kg S.c.) is given as 41.11%; with Kunming mice [3] (20 mg/kg S.c.), 73.68* %; in the assay with Kunming mice [3] (40 mg/kg S.c.), 72.38* %. Further, the Sedative effect in the assay on mice is reported as 75**.

For the compound `COC(=O)c1ccc2ccn(CCCN3CCC(c4noc5cc(F)ccc45)CC3)c2c1` [II-7, methyl 1-(3-(4-(6-fluorobenzo[d]isoxazol-3-yl)piperidin-1-yl)propyl)-1H-indole-6-carboxylate], the Sedative effect in the assay on mice was 96**.

In the case of `Fc1ccc2c(C3CCN(CCCCn4ccc5ccc(Cl)cc54)CC3)noc2c1` [II-10, 3-(1-(4-(6-chloro-1H-indol-1-yl)butyl)piperidin-4-yl)-6-fluorobenzo[d]isoxazole], the Sedative effect in the assay with mice is 99**.

Regarding `Fc1ccc2c(C3CCN(CCCn4cnc5ccccc54)CC3)noc2c1` [II-11, 3-(1-(3-(1H-benzo[d]imidazol-1-yl)propyl)piperidin-4-yl)-6-fluorobenzo[d]isoxazole], the inhibition at 10 µM at 5-HT2A receptor is 99.6%. In addition, the Sedative effect with mice stood at 0.

On to `Fc1ccc2c(C3CCN(CCCCn4cnc5ccccc54)CC3)noc2c1` [II-12, 3-(1-(4-(1H-benzo[d]imidazol-1-yl)butyl)piperidin-4-yl)-6-fluorobenzo[d]isoxazole], for which the inhibition at 10 µM at 5-HT2A receptor amounted to 99.5%. Moreover, the Sedative effect with mice is 52*.

With `Fc1ccc2c(C3CCN(CCCn4ncc5ccccc54)CC3)noc2c1` [II-13, 3-(1-(3-(1H-indazol-1-yl)propyl)piperidin-4-yl)-6-fluorobenzo[d]isoxazole], the Sedative effect in the assay with mice is 66*.

Consider `Fc1ccc2c(C3CCN(CCCn4cnc5ccc(F)cc54)CC3)noc2c1` [III-1, 6-fluoro-3-(1-(3-(6-fluoro-1H-benzo[d]imidazol-1-yl)propyl)piperidin-4-yl)benzo[d]isoxazole], for which the Sedative effect with mice is listed as 54*.

For the compound `N#Cc1ccc2ncn(CCCCN3CCC(c4noc5cc(F)ccc45)CC3)c2c1` [III-3, 1-(4-(4-(6-fluorobenzo[d]isoxazol-3-yl)piperidin-1-yl)butyl)-1H-benzo[d]imidazole-6-carbonitrile], the Sedative effect with mice is listed as 52*.

In the assay on mice, `N#Cc1ccc2ccn(OCCN3CCC(c4noc5cc(F)ccc45)CC3)c2c1` [IV-1, 1-(2-(4-(6-fluorobenzo[d]isoxazol-3-yl)piperidin-1-yl)ethoxy)-1H-indole-6-carbonitrile] showed a Sedative effect of 20.

As to `N#Cc1ccc2ccn(OCCCN3CCC(c4noc5cc(F)ccc45)CC3)c2c1` [IV-2, 1-(3-(4-(6-fluorobenzo[d]isoxazol-3-yl)piperidin-1-yl)propoxy)-1H-indole-6-carbonitrile], the Sedative effect in the assay on mice is given as 52*.

As to `Fc1ccc2c(C3CCN(CCOn4nnc5ccc(Cl)cc54)CC3)noc2c1` [IV-3, 3-(1-(2-(6-chloro-1H-benzo[d][1,2,3]triazol-1-yloxy)ethyl)piperidin-4-yl)-6-fluorobenzo[d]isoxazole], the inhibition at 10 µM at 5-HT2A receptor amounted to 92.8%. Also, the Sedative effect in the assay on mice is recorded as 67*.

Turning to `CN1CC[C@]23c4c5ccc(O)c4O[C@H]2[C@@H](O)C=C[C@H]3[C@H]1C5` [Morphine, reference compound], the “Percentage increase in pain threshold” value with Kunming mice [3] (positive control, 2 mg/kg S.c., hot plate 55° C.) is given as 202.5** %.

The term inhibition denotes the change of the read-out against control, counted positive when it falls. The term IC50 denotes the concentration that gives 50% inhibition. By Ki is commonly meant the dissociation constant of the complex between target and ligand, obtained from inhibition or displacement.
